The supplement of paper PMC10307832

Legend:
Assay in all cases: relative viability (nuclei count vs DMSO), 5 days (fraction); higher = more cells survive
[1] = compound: CN(c1ncccc1CNc1nc(Nc2ccc3c(c2)CC(=O)N3)ncc1C(F)(F)F)S(C)(=O)=O
Summary of the method: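 Vehicle-anchored 1536-well plates of lung cancer cell lines, held overnight at 37 °C, were pinned with five library-drug doses (not always all listed) spaced by √10. No medium change followed over the next 5 days, after which the cells were fixed, permeabilised and Hoechst-stained together and imaged at 4×. Nuclei were counted with MetaXpress, and viability is treated-well nuclei over vehicle-well nuclei, taken as a median across plates. Plates passed with control CV below 25% and at least one doubling.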

[2] = compound: CN(c1ncccc1CNc1nc(Nc2ccc3c(c2)CC(=O)N3)ncc1C(F)(F)F)S(C)(=O)=O + Cc1cc(Nc2cc(N3CCN(C)CC3)nc(Sc3ccc(NC(=O)C4CC4)cc3)n2)n[nH]1 [Tozasertib] (partner 0.1 µM)
Summary of the method: (§1)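 For relative viability, nuclei counts in treated wells were divided by those in vehicle wells. Lung cancer cell lines had been pin-tool dosed in 1536-well plates the day after seeding and cultured for 5 days, then fixed and stained in one step (final 0.05% Triton X-100, 1% formaldehyde, 1 ug/ml Hoechst) and imaged at 4×. Doses were one drug alone or a fixed anchor-drug dose plus five library-drug doses (not always all listed) in √10 steps, and values are duplicate-plate medians.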

[3] = compound: CN(c1ncccc1CNc1nc(Nc2ccc3c(c2)CC(=O)N3)ncc1C(F)(F)F)S(C)(=O)=O + COc1cc2c(Oc3ccc(NC(=O)C4(C(=O)Nc5ccc(F)cc5)CC4)cc3F)ccnc2cc1OCCCN1CCOCC1 [Foretinib] (partner 0.25 µM)
Summary of the method: as §1

[4] = compound: CN(c1ncccc1CNc1nc(Nc2ccc3c(c2)CC(=O)N3)ncc1C(F)(F)F)S(C)(=O)=O + Nc1nc2[nH]cc(CCc3ccc(C(=O)N[C@@H](CCC(=O)O)C(=O)O)cc3)c2c(=O)[nH]1 [Pemetrexed] (partner 0.2 µM)
Summary of the method: as §1

[5] = compound: CN(c1ncccc1CNc1nc(Nc2ccc3c(c2)CC(=O)N3)ncc1C(F)(F)F)S(C)(=O)=O + CC(=O)c1c(C)c2cnc(Nc3ccc(N4CCNCC4)cn3)nc2n(C2CCCC2)c1=O [Palbociclib] (partner 0.5 µM)
Summary of the method: as §1

[6] = compound: CN(c1ncccc1CNc1nc(Nc2ccc3c(c2)CC(=O)N3)ncc1C(F)(F)F)S(C)(=O)=O + Cc1nc(Nc2ncc(C(=O)Nc3c(C)cccc3Cl)s2)cc(N2CCN(CCO)CC2)n1 [Dasatinib] (partner 0.075 µM)
Summary of the method: as §1

[7] = compound: CN(c1ncccc1CNc1nc(Nc2ccc3c(c2)CC(=O)N3)ncc1C(F)(F)F)S(C)(=O)=O + O=C(c1cc(Cc2n[nH]c(=O)c3ccccc23)ccc1F)N1CCN(C(=O)C2CC2)CC1 [Olaparib] (partner 8 µM)
Summary of the method: as §1

[8] = compound: CN(c1ncccc1CNc1nc(Nc2ccc3c(c2)CC(=O)N3)ncc1C(F)(F)F)S(C)(=O)=O + CCNC(=O)c1noc(-c2cc(C(C)C)c(O)cc2O)c1-c1ccc(CN2CCOCC2)cc1 [Luminespib] (partner 0.01 µM)
Summary of the method: as §1

[9] = compound: CN(c1ncccc1CNc1nc(Nc2ccc3c(c2)CC(=O)N3)ncc1C(F)(F)F)S(C)(=O)=O + Nc1ncn([C@H]2C[C@H](O)[C@@H](CO)O2)c(=O)n1 [Decitabine] (partner 2 µM)
Summary of the method: as §1

[10] = compound: CN(c1ncccc1CNc1nc(Nc2ccc3c(c2)CC(=O)N3)ncc1C(F)(F)F)S(C)(=O)=O + COc1cccc2cc(-c3nc([C@H]4CC[C@H](C(=O)O)CC4)n4ncnc(N)c34)[nH]c12 [OSI-027] (partner 0.5 µM)
Summary of the method: as §1

[11] = compound: CN(c1ncccc1CNc1nc(Nc2ccc3c(c2)CC(=O)N3)ncc1C(F)(F)F)S(C)(=O)=O + N=C(N)NC(=N)NCCc1ccccc1 [Phenformin] (partner 250 µM)
Summary of the method: as §1

[12] = compound: CN(c1ncccc1CNc1nc(Nc2ccc3c(c2)CC(=O)N3)ncc1C(F)(F)F)S(C)(=O)=O + NC(=O)Nc1cc(-c2cccc(F)c2)sc1C(=O)N[C@H]1CCCNC1 [AZD7762] (partner 0.2 µM)
Summary of the method: as §1

[13] = compound: CN(c1ncccc1CNc1nc(Nc2ccc3c(c2)CC(=O)N3)ncc1C(F)(F)F)S(C)(=O)=O + O=C(CCCCCCC(=O)Nc1ccccc1)NO [Vorinostat] (partner 1 µM)
Summary of the method: as §1

[14] = compound: CN(c1ncccc1CNc1nc(Nc2ccc3c(c2)CC(=O)N3)ncc1C(F)(F)F)S(C)(=O)=O + CC(=O)Nc1cccc(-n2c(=O)n(C3CC3)c(=O)c3c(Nc4ccc(I)cc4F)n(C)c(=O)c(C)c32)c1 [Trametinib] (partner 0.02 µM)
Summary of the method: as §1

## NCI-H2342
[1]; 0.01 µM
  relative viability: 0.884
[1]; 0.03162 µM
  relative viability: 1.02
[1]; 0.1 µM
  relative viability: 0.791
[1]; 0.3162 µM
  relative viability: 0.962
[1]; 1 µM
  relative viability: 0.854
[2]; first compound 0.01 µM
  relative viability: 0.524
[2]; first compound 0.03162 µM
  relative viability: 0.493
[2]; first compound 0.1 µM
  relative viability: 0.561
[2]; first compound 0.3162 µM
  relative viability: 0.409
[2]; first compound 1 µM
  relative viability: 0.489
[3]; first compound 0.01 µM
  relative viability: 1.15
[3]; first compound 0.03162 µM
  relative viability: 0.976
[3]; first compound 0.1 µM
  relative viability: 0.927
[3]; first compound 0.3162 µM
  relative viability: 0.953
[3]; first compound 1 µM
  relative viability: 0.999
[4]; first compound 0.01 µM
  relative viability: 0.775
[4]; first compound 0.03162 µM
  relative viability: 0.885
[4]; first compound 0.1 µM
  relative viability: 0.801
[4]; first compound 0.3162 µM
  relative viability: 0.789
[4]; first compound 1 µM
  relative viability: 0.757
[5]; first compound 0.01 µM
  relative viability: 0.564
[5]; first compound 0.03162 µM
  relative viability: 0.536
[5]; first compound 0.1 µM
  relative viability: 0.548
[5]; first compound 0.3162 µM
  relative viability: 0.497
[5]; first compound 1 µM
  relative viability: 0.455
[6]; first compound 0.01 µM
  relative viability: 0.32
[6]; first compound 0.03162 µM
  relative viability: 0.306
[6]; first compound 0.1 µM
  relative viability: 0.306
[6]; first compound 0.3162 µM
  relative viability: 0.286
[6]; first compound 1 µM
  relative viability: 0.297
[7]; first compound 0.01 µM
  relative viability: 0.494
[7]; first compound 0.03162 µM
  relative viability: 0.503
[7]; first compound 0.1 µM
  relative viability: 0.471
[7]; first compound 0.3162 µM
  relative viability: 0.352
[7]; first compound 1 µM
  relative viability: 0.398
[8]; first compound 0.01 µM
  relative viability: 0.702
[8]; first compound 0.03162 µM
  relative viability: 0.736
[8]; first compound 0.1 µM
  relative viability: 0.643
[8]; first compound 0.3162 µM
  relative viability: 0.632
[8]; first compound 1 µM
  relative viability: 0.723
[9]; first compound 0.01 µM
  relative viability: 0.802
[9]; first compound 0.03162 µM
  relative viability: 0.728
[9]; first compound 0.1 µM
  relative viability: 0.631
[9]; first compound 0.3162 µM
  relative viability: 0.742
[9]; first compound 1 µM
  relative viability: 0.717
[10]; first compound 0.01 µM
  relative viability: 0.579
[10]; first compound 0.03162 µM
  relative viability: 0.614
[10]; first compound 0.1 µM
  relative viability: 0.617
[10]; first compound 0.3162 µM
  relative viability: 0.519
[10]; first compound 1 µM
  relative viability: 0.57
[11]; first compound 0.01 µM
  relative viability: 0.638
[11]; first compound 0.03162 µM
  relative viability: 0.563
[11]; first compound 0.1 µM
  relative viability: 0.475
[11]; first compound 0.3162 µM
  relative viability: 0.522
[11]; first compound 1 µM
  relative viability: 0.475
[12]; first compound 0.01 µM
  relative viability: 0.506
[12]; first compound 0.03162 µM
  relative viability: 0.516
[12]; first compound 0.1 µM
  relative viability: 0.472
[12]; first compound 0.3162 µM
  relative viability: 0.402
[12]; first compound 1 µM
  relative viability: 0.404
[13]; first compound 0.01 µM
  relative viability: 0.772
[13]; first compound 0.03162 µM
  relative viability: 0.848
[13]; first compound 0.1 µM
  relative viability: 0.696
[13]; first compound 0.3162 µM
  relative viability: 0.646
[13]; first compound 1 µM
  relative viability: 0.803
[14]; first compound 0.01 µM
  relative viability: 0.906
[14]; first compound 0.03162 µM
  relative viability: 0.819
[14]; first compound 0.1 µM
  relative viability: 0.753
[14]; first compound 0.3162 µM
  relative viability: 0.774
[14]; first compound 1 µM
  relative viability: 0.806

## NCI-H1623
[1]; 0.01 µM
  relative viability: 0.733
[1]; 0.03162 µM
  relative viability: 1.07
[1]; 0.1 µM
  relative viability: 0.92
[1]; 0.3162 µM
  relative viability: 0.968
[1]; 1 µM
  relative viability: 0.963
[2]; first compound 0.03162 µM
  relative viability: 0.452
[2]; first compound 0.1 µM
  relative viability: 0.383
[2]; first compound 0.3162 µM
  relative viability: 0.447
[2]; first compound 1 µM
  relative viability: 0.428
[3]; first compound 0.01 µM
  relative viability: 0.798
[3]; first compound 0.03162 µM
  relative viability: 0.905
[3]; first compound 0.1 µM
  relative viability: 0.974
[3]; first compound 0.3162 µM
  relative viability: 0.882
[3]; first compound 1 µM
  relative viability: 0.826
[6]; first compound 0.03162 µM
  relative viability: 0.514
[6]; first compound 0.1 µM
  relative viability: 0.623
[6]; first compound 0.3162 µM
  relative viability: 0.51
[6]; first compound 1 µM
  relative viability: 0.528
[8]; first compound 0.03162 µM
  relative viability: 0.59
[8]; first compound 0.1 µM
  relative viability: 0.503
[8]; first compound 0.3162 µM
  relative viability: 0.514
[8]; first compound 1 µM
  relative viability: 0.429
[10]; first compound 0.01 µM
  relative viability: 0.418
[10]; first compound 0.03162 µM
  relative viability: 0.423
[10]; first compound 0.1 µM
  relative viability: 0.428
[10]; first compound 0.3162 µM
  relative viability: 0.435
[10]; first compound 1 µM
  relative viability: 0.462
[11]; first compound 0.03162 µM
  relative viability: 0.571
[11]; first compound 0.1 µM
  relative viability: 0.626
[11]; first compound 0.3162 µM
  relative viability: 0.568
[11]; first compound 1 µM
  relative viability: 0.593
